Values of other authors in patent US20050197327A1, “Compounds, compositions, and methods” (priority 2003, published 2005).

System: A549 cells
Conditions: data provided by National Cancer Institute

Row | SMILES | GI50
1 | CC(=O)O[C@H]1C(=O)[C@@]2(C)[C@H]([C@H](OC(=O)c3ccccc3)[C@]3(O)C[C@H](OC(=O)[C@H](O)[C@@H](NC(=O)c4ccccc4)c4ccccc4)C(C)=C1C3(C)C)[C@]1(OC(C)=O)CO[C@@H]1C[C@@H]2O [paclitaxel] | 0.004 µM
2 | NC(=O)NO [hydroxyurea] | 500 µM
3 | COc1cccc2c1C(=O)c1c(O)c3c(c(O)c1C2=O)C[C@@](O)(C(=O)CO)C[C@@H]3O[C@H]1C[C@H](N)[C@H](O)[C@H](C)O1 [doxorubicin] | 0.063 µM
4 | O=c1[nH]cc(F)c(=O)[nH]1 [5-fluorouracil] | 1 µM
